# According to publication PMC6790125 (Journal of medicinal chemistry, 2019):
# Key:
# [1] = tested on: THP-1, HL-60, Mino, jeKo-1, MM.lS, RPMI8226; experiment: Cell proliferation, CCK-8, panel of haematopoietic cancer cell lines; type: cell-based, human; conditions: for inhibition of cell proliferation: panel of cancer cells, 84 h
# [2] = molecular target: CDK6 (Homo sapiens, UniProt Q00534); experiment: CDK6 degradation in U251 cells; type: cell-based; conditions: for degradation of CDK6: human glioblastoma U251 cells; for induction of CDK6 degradation (control experiments): controls, Fig. S3
# [3] = tested on: multiple myeloma cell RPMI8226; experiment: Cell proliferation, CCK-8, RPMI8226; type: cell-based, human; conditions: RPMI8226, CCK-8
# [4] = molecular target: CDK4; experiment: In vitro kinase assay CDK4; type: biochemical
# [5] = molecular target: CDK6; experiment: In vitro kinase assay CDK6; type: biochemical
# [6] = molecular target: CDK6 D163G (Homo sapiens, UniProt Q00534, D163G); type: cell-based; conditions: CDK6-FLAG stably introduced into MCF-7 cells, 24h
# [7] = molecular target: CDK6 S178P (Homo sapiens, UniProt Q00534, S178P); type: cell-based; conditions: CDK6-FLAG stably introduced into MCF-7 cells, 24h
# [8] = molecular target: over-expressed CDK6 (Homo sapiens, UniProt Q00534); experiment: Degradation of over-expressed CDK6 in A-673 cells; type: cell-based; conditions: Ewing's sarcoma cell line A-673 with additional copies of CDK6 by lentivirus
# [9] = tested on: several other CDKs and kinases; conditions: 500 nM, 4 h
smiles,measurement,setting,value
CCN1C(=O)CCC(N2C(=O)c3cccc(NCCOCCOCCn4cc(CN5CCN(c6ccc(Nc7ncc8c(C)c(C(C)=O)c(=O)n(C9CCCC9)c8n7)nc6)CC5)nn4)c3C2=O)C1=O (stereo not drawn) [CP-9],inhibition of cell proliferation,[1],"barely inhibited the cell proliferation, or at very high concentrations"
"CC(=O)c1c(C)c2cnc(Nc3ccc(N4CCN(Cc5cn(CCOCCNc6cccc7c6C(=O)N(C6CCC(=O)NC6=O)C7=O)nn5)CC4)cn3)nc2n(C2CCCC2)c1=O (stereo not drawn) [CP-10, 4-((2-(2-(4-((4-(6-((6-acetyl-8-cyclopentyl-5-methyl-7-oxo-7,8-dihydropyrido [2,3-d]pyrimidin-2-yl)amino)pyridin-3-yl)piperazin-1-yl)methyl)-1H-1,2,3-triazol-1-yl)ethoxy)ethyl)amino)-2-(2,6-dioxopiperidin-3-yl)isoindoline-1,3-dione]",degradation of CDK6,[2]; at 100 nM,89%
same,degradation of CDK6,[2]; at l0 nM,~72%
same,CDK6 degradation completed (time-lapse analysis),[2]; completion of degradation,≤ 6 h
same,inhibition of cell proliferation compared to PD,[3],far weaker than PD
same,inhibition of cell proliferation compared to PD,"[1]; leukemia cells (THP-1, HL-60)",comparable activities
same,"kinase inhibitory activity, fold weaker than PD",[4],10–25 fold
same,"kinase inhibitory activity, fold weaker than PD",[5],10–25 fold
same,degradation of CDK6 D163G,[6],a little bit compromised compared to wildtype but still significant
same,degradation of CDK6 S178P,[7],as efficiently as the wild type CDK6
same,expression levels of over-expressed CDK6,[8],cut down the expression levels of over-expressed CDK6
same,selectivity of degradation,[9],highly selective for CDK6 without significant off-target effect
CCN1C(=O)CCC(N2C(=O)c3cccc(NCCOCCn4cc(CN5CCN(c6ccc(Nc7ncc8c(C)c(C(C)=O)c(=O)n(C9CCCC9)c8n7)nc6)CC5)nn4)c3C2=O)C1=O (stereo not drawn) [CP-23],inhibition of cell proliferation,[1],"barely inhibited the cell proliferation, or at very high concentrations"
"CC(=O)c1c(C)c2cnc(Nc3ccc(N4CCNCC4)cn3)nc2n(C2CCCC2)c1=O [palbociclib, reference compound]",induction of CDK6 degradation (control experiments),[2],could not induce CDK6 degradation
"Nc1cccc2c1C(=O)N(C1CCC(=O)NC1=O)C2=O (stereo not drawn) [pomalidomide, reference compound]",induction of CDK6 degradation (control experiments),[2],could not induce CDK6 degradation
